In US20250129069A1, “TRIAZOLO WRN INHIBITORS” (Nimbus Wadjet, Inc., priority 2023, published 2025) one finds EC50 data, which are given here for 13 compounds.

One assay deals with p21 induction in HCT 116 cells. As to the kind of experiment: p21 induction in cells (In-Cell Western, p21/GAPDH ratio). The format is cell-based. The following applies: 24 h compound incubation, read-out: p21_EC50. The protocol:
The colon carcinoma cell line HCT 116 was obtained from ATCC and cultured in growth medium consisting of Mccoy's 5A Medium (Gibco 16600108) supplemented with 10% FBS (Transgene FS201-02) and 100 units/mL penicillin-streptomycin (Gibco 15140122) and maintained at 37° C. under 5% CO2. On the day of seeding, 2,000 cells in 30 μL of culture media were plated per well to Poly-D-Lysine 384 Well Black Clear Plates (Biocoat 356663) and incubated overnight at 37° C. under 5% CO2. The following day, compounds were serially diluted in DMSO for a total of 11 test concentrations. The typical starting concentration of compounds was 10 μM with 2-fold dilutions. Next, 150 nL of diluted compound was added in duplicate to the assay plate, using an Echo 655 (Labcyte). The plate was centrifuged at 500 RPM for 1 min and then incubated at 37° C. under 5% CO2 for 24 h. After 24 h, medium was removed, and cells were fixed by adding 40 μL of 4% paraformaldehyde solution to each well and incubated for 20 min at room temperature. The plate was then washed 4 times with 100 μL per well of wash buffer (PBS with 0.1% Tween-20) using a microplate washer. Next, 30 μL of ice-cold methanol was added to each well and the plate was incubated at −20° C. for 10 min. The plate was washed 4 times with 100 μL per well of wash buffer by a microplate washer, then 30 μL per well of blocking buffer ((Intercept PBS blocking buffer (LI-COR 927-70001) with 0.05% Tween-20)) was added and the plate was incubated at room temperature with shaking for 2 h. Next, to each test well, 20 μL of primary antibody solution (p21 Wafl/CIP (12D1) RabbitmAb (Cell Signaling Technologies 2947) diluted 1:1000 and GAPDH (D4C6R) Mouse mAb (Cell Signaling Technologies 97166) diluted 1:2000 in blocking buffer) was added and the plate was placed at 4° C., overnight. The following day, the plate was washed 5 times with 100 μL per well of wash buffer using a microplate washer for 5 min. 20 μL per well of secondary antibody (IRDye 680CW Goat anti-Mouse IgG (H+L) (LI-COR 926-68070) diluted 1:2000 in Blocking Buffer and IRDye 800CW Goat anti-Rabbit IgG (H+L) (LI-COR 926-32211) diluted 1:2000 in Blocking Buffer) was then added and the plate was stored for 2 h in the dark at room temperature with shaking. The plate was then washed 4 times with 100 μL per well of wash buffer again using a microplate washer. Finally, the p21 signal and the GAPDH signal were quantified using a LI-COR Odyssey CLx Imager machine reading at 800 nm and 700 nm, respectively. Each plate contained DMSO control (low control) and an internal reference WRN inhibitor (high control) respectively. For quantitation, the 800 nm/700 nm ratio was calculated for each well to give fold p21 induction and then percent activation for each compound well was calculated as follows (100×(ratio cpd well-ratio low control)/(ratio high control−ratio low control). EC50 values for each compound was generated after non-linear regression curve fitting using commercially available software.
As to `CCc1c(N2CCN(C(=O)c3ncnc(C)c3O)[C@H]3CC[C@@H]32)c(=O)c2nn(-c3ccnc(OC)c3)nc2n1CC(=O)NC12CC(C3CCC3)(C1)C2` [Compound I-62, N-{3-cyclobutylbicyclo[1.1.1]pentan-1-yl}-2-{5-ethyl-6-[(1S,6S)-5-(5-hydroxy-6-methylpyrimidine-4-carbonyl)-2,5-diazabicyclo[4.2.0]octan-2-yl]-2-(2-methoxypyridin-4-yl)-7-oxo-2H,4H,7H-[1,2,3]triazolo[4,5-b]pyridin-4-yl}acetamide], the EC50 was no more than 500 nM.

The assay is the same for the next values; noted with them: Homo sapiens, 24 h compound incubation, read-out: p21_EC50.
With `CCc1c(N2CCN(C(=O)c3ncnc(C)c3O)CC2)c(=O)c2nn(C3=CCOCC3)nc2n1CC(=O)NC12CC(C(C)C)(C1)C2` [Compound I-38, 2-[2-(3,6-dihydro-2H-pyran-4-yl)-5-ethyl-6-[4-(5-hydroxy-6-methylpyrimidine-4-carbonyl)piperazin-1-yl]-7-oxo-2H,4H,7H-[1,2,3]triazolo[4,5-b]pyridin-4-yl]-N-[3-(propan-2-yl)bicyclo[1.1.1]pentan-1-yl]acetamide], the EC50 was in the range of 500 to 2000 nM.
Regarding `CCc1c(N2CCN(C(=O)c3ncnc(C)c3O)[C@H]3CC[C@@H]32)c(=O)c2nn(-c3ccn(C4CC4)n3)nc2n1CC(=O)NC12CC(C(C)C)(C1)C2` [Compound I-60, 2-[2-(1-cyclopropyl-1H-pyrazol-3-yl)-5-ethyl-6-[(1S,6S)-5-(5-hydroxy-6-methylpyrimidine-4-carbonyl)-2,5-diazabicyclo[4.2.0]octan-2-yl]-7-oxo-2H,4H,7H-[1,2,3]triazolo[4,5-b]pyridin-4-yl]-N-[3-(propan-2-yl)bicyclo[1.1.1]pentan-1-yl]acetamide], the EC50 was no more than 500 nM.
The same measure, in the same setting: next, `CCc1c(N2CCN(C(=O)c3ncnc(C)c3O)[C@H]3CC[C@@H]32)c(=O)c2nn(-c3ccnc(C(F)F)c3)nc2n1CC(=O)NC12CC(C3CC3)(C1)C2` [Compound I-182, N-{3-cyclopropylbicyclo[1.1.1]pentan-1-yl}-2-{2-[2-(difluoromethyl)pyridin-4-yl]-5-ethyl-6-[(1S,6S)-5-(5-hydroxy-6-methylpyrimidine-4-carbonyl)-2,5-diazabicyclo[4.2.0]octan-2-yl]-7-oxo-2H,4H,7H-[1,2,3]triazolo[4,5-b]pyridin-4-yl}acetamide]: no more than 500 nM; `CCc1c(N2CCN(C(=O)c3ncnc(C)c3O)[C@H]3CC[C@@H]32)c(=O)c2nn(C3=CCOCC3)nc2n1CC(=O)NC12CC(C(C)(C)C)(C1)C2` [Compound I-196, N-{3-tert-butylbicyclo[1.1.1]pentan-1-yl}-2-[2-(3,6-dihydro-2H-pyran-4-yl)-5-ethyl-6-[(1S,6S)-5-(5-hydroxy-6-methylpyrimidine-4-carbonyl)-2,5-diazabicyclo[4.2.0]octan-2-yl]-7-oxo-2H,4H,7H-[1,2,3]triazolo[4,5-b]pyridin-4-yl]acetamide]: no more than 500 nM; `CCc1c(N2CCN(C(=O)c3c(O)c(F)cc4ncoc34)[C@H]3CC[C@@H]32)c(=O)c2nn(C3=CCOCC3)nc2n1CC(=O)NC12CC(C3CC3)(C1)C2` [Compound I-194, N-{3-cyclopropylbicyclo[1.1.1]pentan-1-yl}-2-[2-(3,6-dihydro-2H-pyran-4-yl)-5-ethyl-6-[(1S,6S)-5-(5-fluoro-6-hydroxy-1,3-benzoxazole-7-carbonyl)-2,5-diazabicyclo[4.2.0]octan-2-yl]-7-oxo-2H,4H,7H-[1,2,3]triazolo[4,5-b]pyridin-4-yl]acetamide]: no more than 500 nM.
As to `CCc1c(N2CCN(C(=O)c3ncnc(C)c3O)[C@H]3CCC[C@@H]32)c(=O)c2nn(C3=CCOCC3)nc2n1CC(=O)NC12CC(C3CC3)(C1)C2` [Compound I-39, 2-{6-[(4aS,7aS)-4-(5-hydroxy-6-methylpyrimidine-4-carbonyl)-octahydro-1H-cyclopenta[b]pyrazin-1-yl]-2-(3,6-dihydro-2H-pyran-4-yl)-5-ethyl-7-oxo-2H,4H,7H-[1,2,3]triazolo[4,5-b]pyridin-4-yl}-N-{3-cyclopropylbicyclo[1.1.1]pentan-1-yl}acetamide], the EC50 was no more than 500 nM.
For the compound `CCc1c(N2CCN(C(=O)c3ncnc(C)c3O)[C@H]3CC[C@@H]32)c(=O)c2nn(-c3ccnc(OC)c3)cc2n1CC(=O)NC12CC(C3CC3)(C1)C2` [Compound I-188, N-{3-cyclopropylbicyclo[1.1.1]pentan-1-yl}-2-{5-ethyl-6-[(1S,6S)-5-(5-hydroxy-6-methylpyrimidine-4-carbonyl)-2,5-diazabicyclo[4.2.0]octan-2-yl]-2-(2-methoxypyridin-4-yl)-7-oxo-2H,4H,7H-pyrazolo[4,3-b]pyridin-4-yl}acetamide], the EC50 was in the range of 500 to 2000 nM.
Consider `CCc1c(N2CCN(C(=O)c3c(F)cnc(OC)c3O)[C@H]3CC[C@@H]32)c(=O)c2nn(C3=CCOCC3)nc2n1CC(=O)NC12CC(C3CC3)(C1)C2` [Compound I-183, N-{3-cyclopropylbicyclo[1.1.1]pentan-1-yl}-2-[2-(3,6-dihydro-2H-pyran-4-yl)-5-ethyl-6-[(1S,6S)-5-(5-fluoro-3-hydroxy-2-methoxypyridine-4-carbonyl)-2,5-diazabicyclo[4.2.0]octan-2-yl]-7-oxo-2H,4H,7H-[1,2,3]triazolo[4,5-b]pyridin-4-yl]acetamide], for which the EC50 is no more than 500 nM.
Still for that read-out and setting: to `CCc1c(N2CCN(C(=O)c3ncnc(C)c3O)[C@H]3CC[C@@H]32)c(=O)c2nn(C3=CCOCC3)nc2n1CC(=O)NC1CC2(CCC2)C1` [Compound I-197, 2-[2-(3,6-dihydro-2H-pyran-4-yl)-5-ethyl-6-[(1S,6S)-5-(5-hydroxy-6-methylpyrimidine-4-carbonyl)-2,5-diazabicyclo[4.2.0]octan-2-yl]-7-oxo-2H,4H,7H-[1,2,3]triazolo[4,5-b]pyridin-4-yl]-N-{spiro[3.3]heptan-2-yl}acetamide] belongs no more than 500 nM; to `CCc1c(N2CCN(C(=O)c3ncnc(C)c3O)[C@H]3CCC[C@@H]32)c(=O)c2nn(-c3ccnc(OC)c3)nc2n1CC(=O)NC12CC(C3CC3)(C1)C2` [Compound I-33, 2-{6-[(4aS,7aS)-4-(5-hydroxy-6-methylpyrimidine-4-carbonyl)-octahydro-1H-cyclopenta[b]pyrazin-1-yl]-5-ethyl-2-(2-methoxypyridin-4-yl)-7-oxo-2H,4H,7H-[1,2,3]triazolo[4,5-b]pyridin-4-yl}-N-{3-cyclopropylbicyclo[1.1.1]pentan-1-yl}acetamide], no more than 500 nM.
On the same count and under the same terms, next, `CCc1c(N2CCN(C(=O)c3c(COC)cccc3OC)[C@H]3CC[C@@H]32)c(=O)c2nn(C3=CCOCC3)nc2n1CC(=O)NC12CC(C3CC3)(C1)C2` [Compound I-212, N-{3-cyclopropylbicyclo[1.1.1]pentan-1-yl}-2-[2-(3,6-dihydro-2H-pyran-4-yl)-5-ethyl-6-[(1S,6S)-5-[2-methoxy-6-(methoxymethyl)benzoyl]-2,5-diazabicyclo[4.2.0]octan-2-yl]-7-oxo-2H,4H,7H-[1,2,3]triazolo[4,5-b]pyridin-4-yl]acetamide]: 500 to 2000 nM; `CCc1c(N2CCN(C(=O)c3ncnc(C)c3O)[C@H]3CC[C@@H]32)c(=O)c2nn(-c3ccnc(C(F)(F)F)c3)nc2n1CC(=O)NC12CC(C3CC3)(C1)C2` [Compound I-176, N-{3-cyclopropylbicyclo[1.1.1]pentan-1-yl}-2-{5-ethyl-6-[(1S,6S)-5-(5-hydroxy-6-methylpyrimidine-4-carbonyl)-2,5-diazabicyclo[4.2.0]octan-2-yl]-7-oxo-2-[2-(trifluoromethyl)pyridin-4-yl]-2H,4H,7H-[1,2,3]triazolo[4,5-b]pyridin-4-yl}acetamide]: no more than 500 nM.
